Assay results: ChEMBL document CHEMBL5500346, “Targeting EGFR degradation by autophagosome degraders” (Eur J Med Chem, 2024)
Active and inactive are the calls of the source.

Key:
PC-9 [1] = assay: Antiproliferative activity against Gefitinib-resistant human PC-9 cells incubated for 72 hrs by CCK8 assay; assay type: functional, cell-based
A549 = assay: Antiproliferative activity against human A549 cells incubated for 72 hrs by CCK8 assay; assay type: functional, cell-based; settings: A549, 72 h
NCI-H3255 = assay: Antiproliferative activity against human NCI-H3255 cells incubated for 72 hrs by CCK8 assay; assay type: functional, cell-based; settings: NCI-H3255, 72 h
PC-9 [2] = assay: Antiproliferative activity against human PC-9 cells incubated for 72 hrs by CCK8 assay; assay type: functional, cell-based; settings: PC-9, 72 h
L02 = assay: Antiproliferative activity against human HL7702 cells incubated for 72 hrs by CCK8 assay; assay type: toxicity, cell-based; settings: l02, 72 h
[3] = biological target: T1, Microtubule-associated protein 1 light chain 3 beta/Epidermal growth factor receptor (Homo sapiens, UniProt P00533+Q9GZQ8); assay: ATTEC activity at LC3B/EGFR in human HCC827 cells assessed as protein degradation by immunoblot analysis; assay type: cell-based
NCI-H1975 = assay: Antiproliferative activity against human NCI-H1975 cells incubated for 72 hrs by CCK8 assay; assay type: functional, cell-based; settings: NCI-H1975, 72 h
HCC827 = assay: Antiproliferative activity against human HCC827 cells incubated for 72 hrs by CCK8 assay; assay type: functional, cell-based; settings: HCC827, 72 h
PC-9 [4] = assay: In vivo ATTEC activity at LC3B/EGFR in human PC-9 cells implanted in NOD-SCID mouse assessed as protein degradation at 20 mg/kg, ip measured after 24 hrs by Western blot analysis; assay type: functional, organism-based
[5] = biological target: T1, Microtubule-associated protein 1 light chain 3 beta/Epidermal growth factor receptor; assay: ATTEC activity at LC3B/EGFR in human HCC827 cells assessed as protein degradation at 3.3 uM by immunoblot analysis relative to control; assay type: cell-based
[6] = biological target: T1, Microtubule-associated protein 1 light chain 3 beta/Epidermal growth factor receptor; assay: ATTEC activity at LC3B/EGFR in human HCC827 cells assessed as protein degradation at 0.33 uM by immunoblot analysis relative to control; assay type: cell-based
[7] = biological target: T1, Microtubule-associated protein 1 light chain 3 beta/Epidermal growth factor receptor; assay: ATTEC activity at LC3B/EGFR in human HCC827 cells assessed as protein degradation at 0.11 uM by immunoblot analysis relative to control; assay type: cell-based
[8] = biological target: T1, Microtubule-associated protein 1 light chain 3 beta/Epidermal growth factor receptor; assay: Binding affinity to biotinylated LC3B/EGFR in human HCC827 cells BLI assay; assay type: cell-based
[9] = biological target: T1, Microtubule-associated protein 1 light chain 3 beta/Epidermal growth factor receptor; assay: ATTEC activity at LC3B/EGFR in human HCC827 cells assessed as increase in density of lysosomes incubated for 4 hrs by LysoTracker Red staining based analysis; assay type: cell-based
[10] = biological target: T1, Microtubule-associated protein 1 light chain 3 beta/Epidermal growth factor receptor; assay: Binding affinity to biotinylated LC3B/EGFR in human HCC827 cells assessed as dissociation constant BLI assay; assay type: cell-based

Row | Compound | Activity (PC-9 [1]) | IC50 (A549) [µM] | IC50 (NCI-H3255) [µM] | IC50 (PC-9 [2]) [µM] | Activity (L02) | DC50 [3] [µM] | IC50 (NCI-H1975) [µM] | IC50 (HCC827) [µM] | Activity (PC-9 [4]) | Emax [5] [%] | Emax [6] [%] | Emax [7] [%] | Activity [8] | Activity [9] | Kd [10] [µM]
1 | COc1cc2ncnc(Nc3ccc(F)c(Cl)c3)c2cc1OCCOCCOCCNC(=O)COc1c(Br)cc(/C=C2\C(=O)Nc3ccc(Br)cc32)cc1Br | Active | > 10 | 2.84 | 3.12 | Non-Toxic | > 10 | > 10 | 1.06 | – | – | – | – | – | – | –
2 | COc1cc2ncnc(Nc3ccc(F)c(Cl)c3)c2cc1OCCCN1CCOCC1 | – | – | – | – | – | – | – | – | inactive | – | – | – | – | – | –
3 | COc1cc2ncnc(Nc3ccc(F)c(Cl)c3)c2cc1OCCOCCOCCNC(=O)COc1c(Br)cc(/C=C2\C(=O)Nc3ccccc32)cc1Br | Active | > 10 | 0.908 | 1.43 | Non-Toxic | > 10 | 3.18 | 1.15 | – | – | – | – | – | – | –
4 | COc1cc2ncnc(Nc3ccc(F)c(Cl)c3)c2cc1OCCOCCNC(=O)COc1c(Br)cc(/C=C2\C(=O)Nc3ccc(Br)cc32)cc1Br | Active | > 10 | 5.18 | > 10 | Non-Toxic | > 10 | > 10 | > 10 | – | – | – | – | – | – | –
5 | COc1cc2ncnc(Nc3ccc(F)c(Cl)c3)c2cc1OCCCCCCNC(=O)COc1c(Br)cc(/C=C2\C(=O)Nc3ccc(I)cc32)cc1Br | – | > 10 | > 10 | > 10 | Non-Toxic | > 10 | > 10 | > 10 | – | – | – | – | – | – | –
6 | COc1cc2ncnc(Nc3ccc(F)c(Cl)c3)c2cc1OCCCCNC(=O)COc1c(Br)cc(/C=C2\C(=O)Nc3ccc(I)cc32)cc1Br | – | > 10 | 6.04 | > 10 | Non-Toxic | > 10 | > 10 | 0.21 | – | 5.8 | – | – | – | – | –
7 | COc1cc2ncnc(Nc3ccc(F)c(Cl)c3)c2cc1OCCOCCOCCOCCNC(=O)COc1c(Br)cc(/C=C2\C(=O)Nc3ccc(Cl)cc32)cc1Br | – | > 10 | 4.85 | 7.72 | Non-Toxic | > 10 | > 10 | > 10 | – | – | 9.1 | – | – | – | –
8 | COc1cc2ncnc(Nc3ccc(F)c(Cl)c3)c2cc1OCCCCCCCCCCNC(=O)COc1c(Br)cc(/C=C2\C(=O)Nc3ccc(I)cc32)cc1Br | – | > 10 | 4.93 | > 10 | Non-Toxic | > 10 | > 10 | 0.976 | – | – | – | – | – | – | –
9 | COc1cc2ncnc(Nc3ccc(F)c(Cl)c3)c2cc1OCCOCCNC(=O)COc1c(Br)cc(/C=C2\C(=O)Nc3ccc(Cl)cc32)cc1Br | Active | > 10 | 4.58 | > 10 | Non-Toxic | 0.94 | > 10 | 5.87 | – | – | – | – | – | – | –
10 | COc1cc2ncnc(Nc3ccc(F)c(Cl)c3)c2cc1OCCOCCOCCNC(=O)COc1c(Br)cc(/C=C2\C(=O)Nc3ccc(C)cc32)cc1Br | Active | > 10 | 1.83 | 1.36 | Non-Toxic | > 10 | > 10 | 0.862 | – | – | – | – | – | – | –
11 | COc1cc2ncnc(Nc3ccc(F)c(Cl)c3)c2cc1OCCCCCCCCNC(=O)COc1c(Br)cc(/C=C2\C(=O)Nc3ccc(I)cc32)cc1Br | – | > 10 | 6.5 | > 10 | Non-Toxic | > 10 | > 10 | 2.19 | – | – | – | 9.1 | – | – | –
12 | COc1cc2ncnc(Nc3ccc(F)c(Cl)c3)c2cc1OCCOCCOCCOCCOCCNC(=O)COc1c(Br)cc(/C=C2\C(=O)Nc3ccc(I)cc32)cc1Br | – | > 10 | 4.14 | 6.76 | Non-Toxic | 5.81 | > 10 | 1.15 | – | – | – | – | – | – | –
13 | COc1cc2ncnc(Nc3ccc(F)c(Cl)c3)c2cc1OCCOCCNC(=O)COc1c(Br)cc(/C=C2\C(=O)Nc3ccc(C)cc32)cc1Br | Active | > 10 | 2.46 | 3.53 | Non-Toxic | > 10 | > 10 | 1.72 | – | – | – | – | – | – | –
14 | COc1cc2ncnc(Nc3ccc(F)c(Cl)c3)c2cc1OCCOCCOCCOCCNC(=O)C(C)Oc1c(Br)cc(/C=C2\C(=O)Nc3ccc(I)cc32)cc1Br (stereo not given) | Active | > 10 | 3.41 | 7.04 | Non-Toxic | 6.42 | > 10 | 0.923 | – | – | – | – | – | – | –
15 | COc1cc2ncnc(Nc3ccc(F)c(Cl)c3)c2cc1OCCOCCNC(=O)COc1c(Br)cc(/C=C2\C(=O)Nc3ccc(I)cc32)cc1Br | – | > 10 | 3.1 | 7.96 | Non-Toxic | > 10 | > 10 | 1.28 | – | – | 20.2 | – | – | – | –
16 | COc1cc2ncnc(Nc3ccc(F)c(Cl)c3)c2cc1OCCOCCOCCOCCNC(=O)COc1c(Br)cc(/C=C2\C(=O)Nc3ccccc32)cc1Br | Active | > 10 | 1.43 | 1.09 | Non-Toxic | > 10 | > 10 | 1.72 | – | 26 | – | – | – | – | –
17 | COc1cc2ncnc(Nc3ccc(F)c(Cl)c3)c2cc1OCCOCCOCCNC(=O)COc1c(Br)cc(/C=C2\C(=O)Nc3ccc(Cl)cc32)cc1Br | Active | > 10 | 2 | 3.81 | Non-Toxic | 8.49 | > 10 | 6.03 | – | – | – | – | – | – | –
18 | COc1cc2ncnc(Nc3ccc(F)c(Cl)c3)c2cc1OCCOCCOCCNC(=O)COc1c(Br)cc(/C=C2\C(=O)Nc3ccc(I)cc32)cc1Br | – | > 10 | 4.79 | 11.1 | Non-Toxic | 3.62 | > 10 | 2.78 | – | – | – | – | – | – | –
19 | COc1cc2ncnc(Nc3ccc(F)c(Cl)c3)c2cc1OCCOCCNC(=O)COc1c(Br)cc(/C=C2\C(=O)Nc3ccccc32)cc1Br | – | > 10 | 0.904 | 3.63 | Non-Toxic | 4.38 | > 10 | 1.16 | – | – | – | – | Active | Active | 2.2
20 | COc1cc2ncnc(Nc3ccc(F)c(Cl)c3)c2cc1OCCOCCOCCOCCNC(=O)COc1c(Br)cc(/C=C2\C(=O)Nc3ccc(Br)cc32)cc1Br | Active | > 10 | 2.54 | 5.12 | Non-Toxic | 2.77 | > 10 | 3.84 | – | – | – | – | – | – | –
21 | COc1cc2ncnc(Nc3ccc(F)c(Cl)c3)c2cc1OCCOCCOCCOCCNC(=O)COc1c(Br)cc(/C=C2\C(=O)Nc3ccc(C)cc32)cc1Br | Active | > 10 | 1.13 | 3.78 | Non-Toxic | > 10 | > 10 | 0.937 | – | – | – | – | – | – | –
